Patent publication US20090148391A1, “[…] ACTIVE PREPARATIONS COMPRISING […] DERIVATIVES AND FURTHER SKIN AND/OR HAIR LIGHTENING AND/OR SENILE KERATOSIS REDUCING COMPOUNDS” (SYMRISE GmbH & Co. KG, priority 2006, published 2009)

Assays:
fungal-tyrosinase = assay: Tyrosinase-Assay: oxidation of L-DOPA to dopachrome with or without test substance, photometric detection at 475 nm; type: biochemical; details: weight ratio of the mixture; 50 u/ml fungal-tyrosinase, pH 6.8, 37° C., L-DOPA 0.1 mg/ml
Description: The principle of the assay is to oxidise L-DOPA to dopachrome with or without the test substance under physiological conditions in a controlled reaction. Dopachrome and dopaquinone is detected via photometric detection methods. Commercially available fungal-tyrosinase is used for testing the enzyme activity and the correlating inhibition of melanin production.
The enzymatic reaction was conducted with or without a potential inhibitor of the tyrosinase of constituents (a) and (b), such as styrylresorcinol of formula 3 (more than 99% purity) of constituent (a) alone, specific compounds of the constituent b) selected from the group consisting of (i) chelating agents, (ii) phenolic derivatives, plant extracts with an amount of phenolic derivatives and (iii) organic acid derivatives alone, as well as mixtures thereof.
The concentrations of the inhibitor or a mixture thereof range from 0.1 to 1000 μg/ml. The enzyme activity was adjusted to 50 u/ml fungal-tyrosinase in 66.7 mM phosphate buffer (pH=6.8). The reaction mixture was incubated for 10 minutes in a 96-well microtiter plate in a horizontal agitator at 37° C. Then L-DOPA (end concentration: 0.1 mg/ml). The enzymatic conversion to dopachrome is related to the inhibition activity of the single test substances or the mixture thereof, which is shown in a brown discolouration, which can be detected at 475 nm. […]

3T3 firbrosarcoma cells = details: cited from earlier work
[1] = tested on: B16V mouse melanoma cells; details: cited from earlier work

Compound	Ratio 4-(1-phenylthyl)-1,3-dihydroxybenzene CARN 85-27-8:(i) Chelating Agent showing synergistic enhanced lightening activity in the tyrosinase assay (fungal-tyrosinase)	tyrosinase-inhibiting activity (3T3 firbrosarcoma cells)	tyrosinase-inhibiting activity [1]
O=c1cc(CO)occ1O [Kojic acid, 5-hydroxy-2-hydroxymethyl-4-pyranone]	1.3	–	–
CC(c1ccccc1)c1ccc(O)cc1O (stereo not drawn) [styrylresorcinol of the formula 3, 4-(1-phenylethyl)-1,3-dihydroxybenzene]	–	clearly demonstrated	clearly demonstrated
